According to ChEMBL document CHEMBL5543109, “Novel β-Hairpin Antimicrobial Peptide Containing the β-Turn Sequence of -NG- and the Tryptophan Zippers Facilitate Self-Assembly into Nanofibers, Exhibiting Excellent Antimicrobial Performance” (J Med Chem, 2024):
≈ marks a conversion by molar mass, not a printed value. Calls of active or inactive are those of the source. The rule behind the calls is not given here.

Assays:
Escherichia coli [1] = experiment: Antibacterial activity against Escherichia coli infected in BALB/c mouse systemic infection model assessed as reduction in liver bacterial load at 5 to 10 mg/kg, ip measured after 24 hrs; type: functional, organism-based; details: dose 5-10 mg/kg
Staphylococcus aureus [2] = experiment: Synergistic antibacterial activity against methicillin resistant Staphylococcus aureus assessed as fractional inhibitory concentration index incubated for 18 hrs in presence of kanamycin by checkerboard assay; type: functional
Cell membrane [3] = experiment: Induction of cell membrane disruption in Escherichia coli assessed as PI uptake at 2 times MIC incubated for 2 hrs by PI staining based flow cytometry analysis (reference value: 11.9%); type: cell membranes
Staphylococcus aureus [4] = experiment: Antibacterial activity against Staphylococcus aureus infected in BALB/c mouse systemic infection model assessed as reduction in lung bacterial load at 5 to 10 mg/kg, ip measured after 8 hrs; type: functional, organism-based; details: dose 5-10 mg/kg
[5] = Retention time of the compound; type: physicochemical
Staphylococcus aureus [6] = experiment: Synergistic antibacterial activity against Staphylococcus aureus 794 assessed as fractional inhibitory concentration index incubated for 18 hrs in presence of rifampin by checkerboard assay; type: functional
Pseudomonas aeruginosa [7] = experiment: Drug resistance against Pseudomonas aeruginosa assessed as fold increase in MIC after 40 consecutive days of passages by sequential passaging method; type: functional; details: time 18 hrs
Staphylococcus aureus [8] = experiment: Additive antibacterial activity against Staphylococcus aureus assessed as fractional inhibitory concentration index incubated for 18 hrs in presence of polymyxin B by checkerboard assay; type: functional
Staphylococcus aureus [9] = experiment: Antibacterial activity against Staphylococcus aureus infected in BALB/c mouse systemic infection model assessed as reduction in kidney bacterial load at 5 to 10 mg/kg, ip measured after 8 hrs; type: functional, organism-based; details: dose 5-10 mg/kg
Pseudomonas aeruginosa [10] = experiment: Antibacterial activity against Pseudomonas aeruginosa assessed as fractional inhibitory concentration index incubated for 18 hrs in presence of cefotaxime by checkerboard assay; type: functional
Pseudomonas aeruginosa [11] = experiment: Antibacterial activity against Pseudomonas aeruginosa incubated for 18 hrs in presence of NH4Cl by broth microdilution method; type: functional, organism-based
Klebsiella pneumoniae [12] = experiment: Bactericidal activity against Klebsiella pneumoniae at 2 times MIC within 90 mins; type: functional; details: 1.5 h
Staphylococcus aureus [13] = experiment: Synergistic antibacterial activity against methicillin resistant Staphylococcus aureus assessed as fractional inhibitory concentration index incubated for 18 hrs in presence of cefotaxime by checkerboard assay; type: functional
Cell membrane [14] = experiment: Induction of cell membrane disruption in Escherichia coli assessed as PI uptake incubated for 2 hrs by PI staining based confocal laser scanning microscopy; type: cell membranes
Pseudomonas aeruginosa [15] = experiment: Antibacterial activity against Pseudomonas aeruginosa incubated for 18 hrs in presence of ZnCl2 by broth microdilution method; type: functional, organism-based
Cell membrane [16] = experiment: Induction of outer membrane permeabilization in Escherichia coli at 1/2 MIC measured immediately by NPN-dye based assay; type: cell membranes
Cell membrane [17] = experiment: Induction of inner membrane permeabilization in Escherichia coli ML-35 at 1/2 times MIC measured every 5 mins for 120 mins by ONPG dye based assay; type: cell membranes
Staphylococcus aureus [18] = experiment: Antibacterial activity against Staphylococcus aureus 794 infected in BALB/c mouse skin wound infection model assessed as reduction in wound bacterial load at 1 mg/ml, ip administered at 1 hr interval for total 6 treatment and measured after 1 hr post last dose; type: functional, organism-based; details: time 7.0 hrs
[19] = Self-assembly property of compound in PBS assessed as beta-sheet formation by measuring particle size at 50 uM by […]; type: physicochemical; details: buffer
[20] = Acute toxicity in mouse assessed as mortality rate at 300 mg/kg, ip by karber method; type: organism-based; details: in vivo, read-out: Activity
Staphylococcus aureus [21] = experiment: Additive antibacterial activity against methicillin resistant Staphylococcus aureus 113 assessed as fractional inhibitory concentration index incubated for 18 hrs in presence of cefotaxime by checkerboard assay; type: functional
Staphylococcus aureus [22] = experiment: Antibacterial activity against Staphylococcus aureus 794 infected in BALB/c mouse skin wound infection model assessed as reduction in TNFalpha level at 1 mg/ml, ip pre-infected with bacteria for 24 hrs followed by compound addition and measured after 13 days post infection; type: functional, organism-based; details: time 12.0 day
Staphylococcus aureus [23] = experiment: Antibacterial activity against Staphylococcus aureus S794 incubated for 18 hrs by broth microdilution method; type: functional
Staphylococcus aureus [24] = experiment: Additive antibacterial activity against methicillin resistant Staphylococcus aureus 113 assessed as fractional inhibitory concentration index incubated for 18 hrs in presence of ciprofloxacin by checkerboard assay; type: functional
Escherichia coli [25] = experiment: Antibacterial activity against Escherichia coli infected in BALB/c mouse systemic infection model assessed as reduction in kidney bacterial load at 5 to 10 mg/kg, ip measured after 24 hrs; type: functional, organism-based; details: dose 5-10 mg/kg
[26] = Toxicity in BALB/c mouse infected with Staphylococcus aureus 794 assessed as epidermal layer thickness at 1 mg/ml, ip pre-infected with bacteria for 24 hrs followed by compound addition and measured after 13 days by H and E staining based histopathological analysis; type: organism-based; details: in vivo, 312 h, time 13 day
Escherichia coli [27] = experiment: Antibacterial activity against Escherichia coli infected in BALB/c mouse systemic infection model assessed as reduction in lung bacterial load at 5 to 10 mg/kg, ip measured after 24 hrs; type: functional, organism-based; details: dose 5-10 mg/kg
Staphylococcus aureus [28] = experiment: Antibacterial activity against methicillin resistant Staphylococcus aureus 75 incubated for 18 hrs by broth microdilution method; type: functional
Staphylococcus aureus [29] = experiment: Synergistic antibacterial activity against methicillin resistant Staphylococcus aureus assessed as fractional inhibitory concentration index incubated for 18 hrs in presence of streptomycin by checkerboard assay; type: functional
Klebsiella pneumoniae [30] = experiment: Antibacterial activity against Klebsiella pneumoniae ATCC 700603 incubated for 18 hrs by broth microdilution method; type: functional
Pseudomonas aeruginosa [31] = experiment: Induction of morphological change in Pseudomonas aeruginosa assessed as leakage of cellular contents at 2 times MIC incubated for 30 mins by SEM analysis; type: functional, organism-based
Pseudomonas aeruginosa [32] = experiment: Antibacterial activity against Pseudomonas aeruginosa incubated for 18 hrs in presence of MgCl2 by broth microdilution method; type: functional, organism-based
[33] = Toxicity in BALB/c mouse infected with Staphylococcus aureus 794 assessed as hyperkeratosis at 1 mg/ml, ip pre-infected with bacteria for 24 hrs followed by compound addition and measured after 13 days by H and E staining based histopathological analysis; type: organism-based; details: in vivo, 312 h, time 13 day
Staphylococcus aureus [34] = experiment: Synergistic antibacterial activity against kanamycin resistant Staphylococcus aureus assessed as fractional inhibitory concentration index incubated for 18 hrs in presence of rifampin by checkerboard assay; type: functional
Staphylococcus aureus [35] = experiment: Additive antibacterial activity against methicillin resistant Staphylococcus aureus assessed as fractional inhibitory concentration index incubated for 18 hrs in presence of gentamycin by checkerboard assay; type: functional
Klebsiella pneumoniae [36] = experiment: Additive antibacterial activity against Klebsiella pneumoniae assessed as fractional inhibitory concentration index incubated for 18 hrs in presence of kanamycin by checkerboard assay; type: functional
Cell membrane [37] = experiment: Induction of outer membrane permeabilization in Escherichia coli at 4 times MIC measured immediately by NPN-dye based assay; type: cell membranes
Staphylococcus aureus [38] = experiment: Synergistic antibacterial activity against Staphylococcus aureus 794 assessed as fractional inhibitory concentration index incubated for 18 hrs in presence of bacitracin by checkerboard assay; type: functional
[39] = Elimination half life in Sprague-Dawley rat at 1 mg/kg, iv measured upto 120 mins by LC-MS analysis; type: ADME, organism-based; details: in vivo, read-out: beta t1/2
Escherichia coli [40] = experiment: Synergistic antibacterial activity against kanamycin resistant Escherichia coli assessed as fractional inhibitory concentration index incubated for 18 hrs in presence of cefotaxime by checkerboard assay; type: functional
[41] = Acute toxicity in mouse assessed as cell swelling at 230.5 mg/kg, ip by H and E staining based assay; type: organism-based; details: in vivo

## NCCCC[C@@H](NC(=O)[C@H](N)Cc1c[nH]c2ccccc12)C(=O)N[C@H](Cc1c[nH]c2ccccc12)C(=O)N[C@H](CCCCN)C(=O)N[C@H](Cc1c[nH]c2ccccc12)C(=O)N[C@@H](CC(N)=O)C(=O)NCC(=O)N[C@H](Cc1c[nH]c2ccccc12)C(=O)N[C@H](CCCCN)C(=O)N[C@H](Cc1c[nH]c2ccccc12)C(=O)N[C@H](CCCCN)C(=O)N[C@H](Cc1c[nH]c2ccccc12)C(N)=O
Escherichia coli [1]
  Activity: Active
Staphylococcus aureus [2]
  fractional inhibitory concentration index (FICI): 0.313
Cell membrane [3]
  Activity: 86.2%
Staphylococcus aureus [4]
  Activity: Active
[5]
  Retention_time: 14.321 min
Staphylococcus aureus [6]
  fractional inhibitory concentration index (FICI): 0.188
Pseudomonas aeruginosa [7]
  fold change (FC): 4
Staphylococcus aureus [8]
  fractional inhibitory concentration index (FICI): 1
Staphylococcus aureus [9]
  Activity: Active
Pseudomonas aeruginosa [10]
  fractional inhibitory concentration index (FICI): 1.063
Pseudomonas aeruginosa [11]
  Activity: Active
Klebsiella pneumoniae [12]
  Activity: 100%
Staphylococcus aureus [13]
  fractional inhibitory concentration index (FICI): 0.313
Cell membrane [14]
  Activity: Dose-Dependent Effect
Pseudomonas aeruginosa [15]
  Activity: Active
Cell membrane [16]
  Activity: 40%
Cell membrane [17]
  Activity: inactive
Staphylococcus aureus [18]
  Activity: Active
[19]
  Activity: 874.9 nm
[20]
  mortality: 100%
Staphylococcus aureus [21]
  fractional inhibitory concentration index (FICI): 0.563
Staphylococcus aureus [22]
  Activity: Active
Staphylococcus aureus [23]
  MIC: 8 µM (≈ 14.5 µg/mL)
Staphylococcus aureus [24]
  fractional inhibitory concentration index (FICI): 1
Escherichia coli [25]
  Activity: Active
[26]
  Activity: Non-Toxic
Escherichia coli [27]
  Activity: Active
Staphylococcus aureus [28]
  MIC: 8 µM (≈ 14.5 µg/mL)
Staphylococcus aureus [29]
  fractional inhibitory concentration index (FICI): 0.5
Klebsiella pneumoniae [30]
  MIC: 8 µM (≈ 14.5 µg/mL)
Pseudomonas aeruginosa [31]
  Activity: Active
Pseudomonas aeruginosa [32]
  Activity: Active
[33]
  Activity: Non-Toxic
Staphylococcus aureus [34]
  fractional inhibitory concentration index (FICI): 0.313
Staphylococcus aureus [35]
  fractional inhibitory concentration index (FICI): 0.75
Klebsiella pneumoniae [36]
  fractional inhibitory concentration index (FICI): 0.563
Cell membrane [37]
  Activity: 100%
Staphylococcus aureus [38]
  fractional inhibitory concentration index (FICI): 0.313
[39]
  half-life: 11.4 min
Escherichia coli [40]
  fractional inhibitory concentration index (FICI): 0.375
[41]
  Activity: Toxic
